The values below come from US8658661B2, “Oxadiazole inhibitors of leukotriene production” (Boehringer Ingelheim International GmbH, priority 2010, dated 2014).

For assay [1], the system named is apoE/LDL-R double knockout mice. The settings on record: oral dosing, high-fat diet from 2 months of age to 6 months; cited from earlier work.
Assay [2] deals with ApoE−/−xCD4dnTβRII mice. The settings on record: via infusion, treated for four weeks; cited from earlier work.
In assay [3] the test system is human glomerulonephritis. The settings on record: clinical trial; cited from earlier work.
The subject of assay [4] is biomarkers for myocardial infarction risk. Particulars: clinical trial; cited from earlier work.
Assay [5] has as its target T1, recombinant human FLAP protein (Homo sapiens, UniProt P20292).
T1 construct: made in house; host or cells: Sf9 insect cells (100,000×g membrane pellet used)
T1 sequence (P20292 1-161): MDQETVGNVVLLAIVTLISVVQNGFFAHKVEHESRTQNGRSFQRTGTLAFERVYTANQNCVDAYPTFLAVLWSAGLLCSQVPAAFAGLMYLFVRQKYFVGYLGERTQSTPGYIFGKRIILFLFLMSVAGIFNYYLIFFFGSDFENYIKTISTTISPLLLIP
Put plainly: FLAP binding assay (SPA, displacement of [125I]L-691,831). The settings on record: membranes of sf9 cells expressing recombinant human FLAP; [125I]L-691,831 probe; read-out: FLAP binding IC50. The method in brief:
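Membranes from sf9 cells expressing human FLAP in pH 7.5 Tris buffer (MgCl2, EDTA, PMSF). Non-specific binding defined with 10 μM cold L-691,831.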

Assay [6] deals with synthesis of LTB4 in human whole blood. Put plainly: Human whole blood assay (inhibition of LTB4 synthesis, calcimycin stimulated). It counts as cell-based. The settings on record: heparinized human whole blood, calcimycin 20 μM, plasma LTB4. The method in brief:
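Heparinized human whole blood preincubated with compound 15 min at 37 °C, then stimulated with calcimycin (20 μM final) for 30 min at 37 °C. Plasma LTB4 measured after low-speed centrifugation by antibody-based homogeneous time-resolved fluorescence.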

Consider `CC(C)c1ccc2c(c1)c(SC(C)(C)C)c(CC(C)(C)C(=O)O)n2Cc1ccc(Cl)cc1` [MK-886], for which, in assay [1], the “decrease in plaque coverage in the aorta” value is recorded as 56% and the “decrease in plaque coverage in the aortic root” value is 43%. Further, the “decrease in plaque area in the aortic root” value in assay [2] is given as roughly 40%.

Take `CC(C)(C)Sc1c(CC(C)(C)C(=O)O)n(Cc2ccc(Cl)cc2)c2ccc(OCc3ccc4ccccc4n3)cc12` [MK-591]: the “effect on proteinuria in human glomerulonephritis” value in assay [3] was “reduce proteinuria”.

As to `O=C(O)[C@@H](c1ccc(OCc2ccc3ccccc3n2)cc1)C1CCCC1` [DG-031], the “effect on biomarkers for myocardial infarction risk” value in assay [4] is reported as “dose-dependent suppression of several biomarkers”.

For orientation: IC50 means the concentration that inhibits the measured activity by half. For `CNc1ncc(-c2ccc([C@](C)(c3noc(-c4cnn(CC(=O)N(C)C)c4)n3)C3CC3)cc2)cn1` [Example 226, 2-[4-(3-{(R)-1-Cyclopropyl-1-[4-(2-methylamino-pyrimidin-5-yl)-phenyl]-ethyl}-[1,2,4]oxadiazol-5-yl)-pyrazol-1-yl]-N,N-dimethyl-acetamide], the 50% inhibitory concentration (IC50) worked out at 2 nM in assay [5] and 30 nM in assay [6].

With `COCCNc1cnc(-c2nc(C(C)(c3ccc(-c4cnc(N)nc4)cc3)C(C)C)no2)cn1` (stereo not shown) [Example 162, 5-{4-[2-(5-{5-[(2-methoxyethyl)amino]pyrazin-2-yl}-1,2,4-oxadiazol-3-yl)-3-methylbutan-2-yl]phenyl}pyrimidin-2-amine], the half-maximal inhibitory concentration (IC50) in assay [5] was 2.3 nM; in assay [6], 41 nM.

Consider `CC(C)(CO)Nc1cnc(-c2nc(C(C)(c3ccc(-c4cnc(N)nc4)cc3)C3CC3)no2)cn1` (stereo not shown) [Example 45, 2-{[5-(3-{1-[4-(2-aminopyrimidin-5-yl)phenyl]-1-cyclopropylethyl}-1,2,4-oxadiazol-5-yl)pyrazin-2-yl]amino}-2-methylpropan-1-ol], for which the 50% inhibitory concentration (IC50) in assay [5] was 3.1 nM; in assay [6] it was 140 nM.

As for `CN(C)C(=O)Cn1cc(-c2nc(C(C)(c3ccc(-c4cnc5c(c4)OCCN5)cc3)C3CC3)no2)cn1` (stereo not shown) [Example 239, 2-[4-(3-{1-Cyclopropyl-1-[4-(3,4-dihydro-2H-pyrido[3,2-b][1,4]oxazin-7-yl)-phenyl]-ethyl}-[1,2,4]oxadiazol-5-yl)-pyrazol-1-yl]-N,N-dimethyl-acetamide], the IC50 worked out at 4.1 nM in assay [5] and 290 nM in assay [6].

On to `CN(C)C(=O)Cn1cc(-c2nc([C@@](C)(c3ccc(-c4cnc(N)c(C(F)(F)F)c4)cc3)C3CC3)no2)cn1` [Example 281, 2-[4-(3-{(R)-1-[4-(6-Amino-5-trifluoromethyl-pyridin-3-yl)-phenyl]-1-cyclopropyl-ethyl}-[1,2,4]oxadiazol-5-yl)-pyrazol-1-yl]-N,N-dimethyl-acetamide], for which the half-inhibitory concentration (IC50) was determined as 5 nM in assay [5] and 160 nM in assay [6].

Consider `Cn1cc(-c2nc(C(C)(c3ccc(-c4cnc5[nH]ccc5c4)cc3)C3CC3)no2)cn1` (stereo not shown) [Example 253, 5-(4-{1-Cyclopropyl-1-[5-(1-methyl-1H-pyrazol-4-yl)-[1,2,4]oxadiazol-3-yl]-ethyl}-phenyl)-1H-pyrrolo[2,3-b]pyridine], for which the IC50 was 3.8 nM in assay [5] and 120 nM in assay [6].

`CC(C)C(C)(c1ccc(-c2cnc(N)nc2)cc1)c1noc(C(C)(C)CC(=O)O)n1` (stereo not shown) [Example 92, 3-(3-{2-[4-(2-aminopyrimidin-5-yl)phenyl]-3-methylbutan-2-yl}-1,2,4-oxadiazol-5-yl)-3-methylbutanoic acid]: the IC50 in assay [5] is 110 nM; in assay [6] it was greater than 5000 nM.
